Results taken from patent US11318157B2, “6-6 bicyclic aromatic ring substituted nucleoside analogues for use as PRMT5 inhibitors” (Janssen Pharmaceutica NV, priority 2015, dated 2022).
Where two headings read alike, the source gives them in different places.

Tests used:
PRMT5-MEP50 enzyme = target: T1, PRMT5-MEP50 enzyme (Homo sapiens, UniProt O14744); assay: In vitro assay 1b: high throughput mass spectrometer assay of SAH formation, 1.25 nM enzyme, 120 min; assay type: biochemical; settings: averaged values; PRMT5-MEP50, 1.25 nM enzyme, 120 min; read-out: pIC50 Assay 1b (converted)
T1 construct: One virus expresses full length human PRMT5 with Flag-tag at N-terminus; Flag (N); purchased Charles River (Argenta); host or cells: insect cells (Sf9), baculovirus co-infection
From the text: Experimental Procedures In Vitro Assay (Assay 1a and 1b)
PRMT5-MEP50 enzyme was purchased from Charles River (Argenta). The enzyme complex was produced in insect cells (Sf9) infected simultaneously with two baculoviruses. One virus expresses full length human PRMT5 with Flag-tag at N-terminus, the second virus expresses full length MEP50 with His6-TEV cleavage at N-terminus. The protein was affinity purified using anti-Flag (M2) beads eluted with 3×FLAG peptide, followed by His-Select eluted with 0.5M imidazole. Eluted protein was then dialysed against tris-buffered saline (TBS) (pH 8.0) containing 20% glycerol and 3 mM dithiothreitol (DTT).
Full-length untagged human recombinant histone H2A (residues 1-130, Genbank Accession #NM_021052 MW=14.1 kDa) expressed in E. coli was purchased from Reaction Biology Corporation, Cat #HMT-11-146. Reagents used for making reaction buffer or stopping reaction were purchased including Tris base (Sigma Cat #T-1503), NaCl (Sigma Cat #RGF-3270), MgCl2 (Sigma Cat #M0250), DTTI (Invitrogen Cat #15508-013) and Formic Acid (Riedel deHaen, Cat #33015)
High Throughput Mass Spectrometer Assay
PRMT5 catalyzes the sequential methylations of the terminal nitrogen atoms on the guanidine groups of arginine residues within proteins using co-substrate S-adenosyl-L-methionine (AdoMet, SAM), forming mono-methyl (MMA), symmetric-dimethyl arginine (sDMA) and S-adenosyl-L-homocysteine (AdoHcy, SAH). The enzyme activity was determined by following the product SAH formation using high throughput mass spectrometry (Agilent Rapidfire 300 System coupled to a Sciex 4000 series QTrap® triple-quad MS/MS). The reaction buffer was 20 mM Tris-HCl, pH 8.5, 50 mM NaCl, 5 mM MgCl2 and 1 mM DTT. The reaction activity was stopped using 1% formic acid (final concentration).
The IC50 Studies were performed using eleven point dosing series made for each compound by serially diluted 1:2 in dimethyl sulfoxide (DMSO), with point 12 being a DMSO control. Compounds were first spotted to plates, and followed by addition of 2 μM SAM and 0.6 μM H2A (histone H2A) solution mixture. The same volume of enzyme solution was added to initiate the enzymatic reactions. The final concentrations of the reaction are at 1 μM SAM, 0.3 μM H2A and 10 nM enzyme (assay 1a) or 1.25 nM enzyme (assay 1b). The reaction was incubated at 30° C. for 60 minutes (min) when 10 nM enzyme was used and for 120 min when 1.25 nM enzyme was used. Subsequently, the reaction was quenched by addition of formic acid to a final concentration of 1%. The inhibitions of SAH formation in the presence of compounds were calculated as a percentage of the control relative to the uninhibited reaction as a function of inhibitor concentration. The data were fit as follows: Y=Bottom+(Top−Bottom)/(1+10^((log IC50−X)*h))
where IC50 is the inhibitor concentration (same unit as X) at 50% inhibition and h is the Hill slope. Y is percent of inhibition, X is log of compound concentration. Bottom and Top are the plateaus in same units as Y.

[1] = tested on: nuclear symmetric Arginine dimethylation in A549 cells; assay: PD assay (assay 2): inhibition of nuclear symmetric Arginine dimethylation (SYM10 immunohistochemistry), 48 h; assay type: cell-based; settings: Homo sapiens
Description: Experimental Procedure PD Assay (Assay 2)
A549 cells (ATCC, Cat #CCL-185) were cultured in Dulbecco's Modified Eagle's Medium (DMEM) (Sigma, Cat #D5796), supplemented with 10% Fetal Calf Serum (FCS) (HyClone™, Cat #SV30160.03), 100 mM Sodium Pyruvate (Sigma, Cat #S8636), 200 mM L-Glutamine (Sigma, Cat #G7513) and 50 mg/mL gentamycin (Gibco, Cat #15750-037).
Reagents used for buffers were purchased: Dulbecco's phosphate buffered saline (DPBS) without Ca/Mg (Sigma, Cat #D8537), phosphate buffered saline (PBS) 10× (Roche, Cat #11 666 789 001), Formalin solution 10% (Sigma, HT50-1-128-4L), Methanol 100% (Sigma, Cat #32213-2.5L), Triton X-100 (Acros, Cat #215680010), Bovine Serum Albumin (BSA) (Sigma, Cat #A2153), Alexa fluor 488 goat anti-rabbit antibody (Life Technologies, Cat #A11034), HCS CellMask Deep Red Stain (Life Technologies, Cat #H32721), Hoechst Stain (Life Technologies, Cat #33258), Anti-dimethyl-Arginine, sym (SYM10) antibody (Millipore, 07-412).
Immunohistochemistry Procedure
Cells were plated at 400 cells/40 μL/well in 384 well black μplates clear bottom (Perkin Elmer) and overnight incubated at 37° C., 5% CO2. […] 80 nL of the respective dilution of the compounds was added using the Labcyte POD 810 (Labcyte) reaching a final DMSO concentration of 0.2% in cell culture. After an incubation period of 48 h at 37° C. and 5% CO2, cells were fixed in 10% formalin solution for 15 min at room temperature and 20 min in ice-cold methanol, after which they were washed 3× in DPBS. Subsequently, the cells were blocked for 1 h in blocking buffer (PBS+1% BSA and 0.5% Triton X-100) and incubated overnight at 4° C. with the SYM10 antibody diluted 1/2000 in blocking buffer. The cells were washed 3× with washing buffer (PBS+0.1% Triton X-100) and incubated with the Alexa fluor 488 goat anti-rabbit antibody diluted 1/200 in blocking buffer for 1 h at room temperature. Subsequently, they were washed 3× with washing buffer and incubated for 30 min at room temperature with PBS containing a 1/5000 dilution of Hoechst Stain and a 1/5000 dilution of the HCS CellMask Deep Red Stain. After a final wash with PBS, the plates were imaged using the 10×W lens of the Opera® system (Perkin Elmer Life Sciences) using following settings (values in nm):
In the above equations, the following variable names are used: […]
In the above equations, the following controls were used for normalization: […]
Low control: minimum level of symmetrically dimethylated Arginines (cells treated with reference compound at 10 μM).
High control: maximum level of symmetrically dimethylated Arginines (DMSO treated cells).
IC50 and pIC50 (−log IC50) values were calculated using the appropriate software.
The pIC50 values in the Table below are averaged values (Co. No. means compound number; n.d. means not determined).

[2] = A549, averaged values, PD assay, A549 cells, symmetric Arginine dimethylation, read-out: pIC50 Assay 2 (converted)

T1 sequence (O14744 whole entry): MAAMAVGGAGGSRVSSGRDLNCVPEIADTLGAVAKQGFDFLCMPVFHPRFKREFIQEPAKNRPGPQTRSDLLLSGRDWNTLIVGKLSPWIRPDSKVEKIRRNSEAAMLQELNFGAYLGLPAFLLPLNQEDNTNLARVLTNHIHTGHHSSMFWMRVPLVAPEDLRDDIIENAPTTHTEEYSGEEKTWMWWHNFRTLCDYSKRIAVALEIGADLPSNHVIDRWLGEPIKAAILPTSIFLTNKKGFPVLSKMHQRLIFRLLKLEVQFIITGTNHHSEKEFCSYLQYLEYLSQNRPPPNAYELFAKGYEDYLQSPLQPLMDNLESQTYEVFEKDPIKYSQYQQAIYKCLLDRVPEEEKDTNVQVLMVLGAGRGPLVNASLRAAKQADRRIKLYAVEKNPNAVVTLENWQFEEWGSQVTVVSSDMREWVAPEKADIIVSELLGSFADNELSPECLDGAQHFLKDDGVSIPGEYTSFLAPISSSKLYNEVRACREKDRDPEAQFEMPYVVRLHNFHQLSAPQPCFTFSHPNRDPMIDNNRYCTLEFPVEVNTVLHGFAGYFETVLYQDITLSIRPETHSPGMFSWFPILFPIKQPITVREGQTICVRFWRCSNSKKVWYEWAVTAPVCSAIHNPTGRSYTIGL
T1 sequence (Q9BQA1 whole entry partner): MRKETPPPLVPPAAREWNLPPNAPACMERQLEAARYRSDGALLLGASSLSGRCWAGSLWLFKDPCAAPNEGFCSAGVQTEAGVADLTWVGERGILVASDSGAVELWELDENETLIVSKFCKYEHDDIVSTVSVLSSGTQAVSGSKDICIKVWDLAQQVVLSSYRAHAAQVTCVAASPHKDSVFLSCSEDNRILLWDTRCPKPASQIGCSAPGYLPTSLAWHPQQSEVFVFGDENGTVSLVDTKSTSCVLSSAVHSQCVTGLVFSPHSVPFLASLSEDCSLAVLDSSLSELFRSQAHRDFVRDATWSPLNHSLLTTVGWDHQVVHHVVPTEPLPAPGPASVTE

Structure (SMILES) | IC50 (PRMT5-MEP50 enzyme) | IC50 [1, 2] | IC50 ([1]; A549, read-out: pIC50 Assay 2 (converted))
CNc1ncnc2c1ccn2[C@@H]1O[C@H](COc2ccc3cc(Br)c(N)nc3c2)[C@@H](O)[C@H]1O [Compound 232] | 3.98 nM |  | 
CNc1nc2cc(CC[C@H]3C[C@@H](n4ccc5c(N)ncnc54)[C@H](O)[C@@H]3O)ccc2cc1F [Compound 157] | 631 nM | 501 nM | 
Nc1nc2cc(CC[C@H]3C[C@@H](n4ccc5c(N)nccc54)[C@H](O)[C@@H]3O)ccc2cc1Br [Compound 252] | 0.631 nM |  | 
CNc1ncnc2c1ccn2[C@@H]1C[C@H](CCc2ccc3cc(C(F)(F)F)c(N)nc3c2)[C@@H](O)[C@H]1O [Compound 201] | 1.58 nM | 39.8 nM | 
Nc1nc2cc(OC[C@H]3O[C@@H](n4ccc5c(N)ncnc54)[C@H](O)[C@@H]3O)ccc2cc1Br [Compound 233] | < 0.2 nM |  | 
Nc1nc2cc(CC[C@H]3C[C@@H](n4ccc5cnc(Cl)nc54)[C@H](O)[C@@H]3O)ccc2cc1Cl [Compound 241] | 2.51 nM | < 1.17 nM | 
CNc1ccc2ccc(CC[C@H]3C[C@@H](n4ccc5c(OC)ncnc54)[C@H](O)[C@@H]3O)cc2n1 [Compound 180] | 1.26 nM | 39.8 nM | 
Nc1nc2cc(CC[C@H]3O[C@@H](n4ccc5c(N)ncnc54)[C@H](O)[C@@H]3O)ccc2cc1Cl [Compound 158] | 0.126 nM | 3.16 nM | 
COc1ncnc2c1ccn2[C@@H]1O[C@H](CCc2ccc3cc(F)c(N)nc3c2)[C@@H](O)[C@H]1O [Compound 230] | 631 nM |  | 
COc1ncnc2c1ccn2[C@@H]1C[C@H](CCc2ccc3cc(Cl)c(N)nc3c2)[C@@H](O)[C@H]1O [Compound 195] | 0.501 nM | 25.1 nM | 
Nc1nc2cc(CC[C@H]3O[C@@H](n4ccc5c(N)ncnc54)[C@H](O)[C@@H]3O)ccc2cc1C(F)(F)F [Compound 244] | 3.16 nM |  | 
Nc1ncnc2c1ccn2[C@@H]1C[C@H](COc2ccc3cccnc3c2)[C@@H](O)[C@H]1O [Compound 46] | 63.1 nM | 126 nM | 
CNc1ncnc2c1ccn2[C@@H]1C[C@H](CCc2ccc3ccc(NCC4CC4)nc3c2)[C@@H](O)[C@H]1O [Compound 209] | 0.316 nM | 15.8 nM | 
Nc1nc2cc(CC[C@H]3C[C@@H](n4ccc5c(N)nc(Cl)nc54)[C@H](O)[C@@H]3O)ccc2cc1Cl [Compound 240] | < 0.2 nM | < 1.17 nM | 
CNc1ncnc2c1ccn2[C@@H]1C[C@H](CCc2ccc3cc(Br)c(N)nc3c2)[C@@H](O)[C@H]1O [Compound 238] | 0.794 nM | 1.26 nM | 
COc1ncnc2c1ccn2[C@@H]1C[C@H](CCc2ccc3ccc(NCC(F)F)nc3c2)[C@@H](O)[C@H]1O [Compound 182] | 6.31 nM | 316 nM | 
CNc1ncnc2c1ccn2[C@@H]1O[C@H](CCc2ccc3cc(F)c(N)nc3c2)[C@@H](O)[C@H]1O [Compound 229] | 39.8 nM |  | 
Nc1ncnc2c1ccn2[C@@H]1C[C@H](CCc2ccc3ccc(Nc4ccc(Cl)cc4)nc3c2)[C@@H](O)[C@H]1O [Compound 161] | 1.58 nM | 39.8 nM | 

Structure (SMILES) | IC50 (PRMT5-MEP50 enzyme) | IC50 [1, 2] | IC50 ([1]; A549, read-out: pIC50 Assay 2 (converted))
Nc1nc2cc(CC[C@H]3C[C@@H](n4ccc5cnccc54)[C@H](O)[C@@H]3O)ccc2cc1Cl [Compound 247] | 0.794 nM |  | 
Nc1ncnc2c1ccn2[C@@H]1C[C@H](OCc2ccc3ccc(NCC4CC4)nc3c2)[C@@H](O)[C@H]1O [Compound 160] | 0.794 nM | 15.8 nM | 
Nc1nc2cc(CC[C@H]3C[C@@H](n4ccc5cccnc54)[C@H](O)[C@@H]3O)ccc2cc1Cl [Compound 249] | 20 nM | 501 nM | 
Nc1nc2cc(CC[C@H]3C[C@@H](n4ccc5nccnc54)[C@H](O)[C@@H]3O)ccc2cc1Cl [Compound 250] | 31.6 nM | 200 nM | 
CNc1ncnc2c1ccn2[C@@H]1C[C@H](CCc2ccc3cc(F)c(N)nc3c2)[C@@H](O)[C@H]1O [Compound 202] | 1.58 nM | 15.8 nM | 
CNc1ncnc2c1ccn2[C@@H]1C[C@H](CCc2ccc3ccc(NCC(F)F)nc3c2)[C@@H](O)[C@H]1O [Compound 184] | 2 nM | 63.1 nM | 
Nc1nc2cc(CC[C@H]3C[C@@H](n4ccc5ncccc54)[C@H](O)[C@@H]3O)ccc2cc1Cl [Compound 248] | 50.1 nM | 158 nM | 
Nc1ncnc2c1ccn2[C@@H]1C[C@H](COc2ccc3ccc(NCC4CC4)nc3c2)[C@@H](O)[C@H]1O [Compound 224] | < 0.2 nM |  | 
Nc1nc2cc(OC[C@H]3O[C@@H](n4ccc5c(O)ncnc54)[C@H](O)[C@@H]3O)ccc2cc1Br [Compound 234] | 794 nM |  | 
Nc1ccc2ccc(CC[C@H]3C[C@@H](n4ccc5c(N)ncnc54)[C@H](O)[C@@H]3O)cc2n1 [Compound 76] |  |  | 0.158 nM
COc1ncnc2c1ccn2[C@@H]1C[C@H](COc2ccc3cc(Cl)c(N)nc3c2)[C@@H](O)[C@H]1O [Compound 228] | 5.01 nM |  | 
CNc1ncnc2c1ccn2[C@@H]1C[C@H](COc2ccc3ccc(NCC4CC4)nc3c2)[C@@H](O)[C@H]1O [Compound 225] | 6.31 nM |  | 
Nc1nc2cc(CC[C@H]3C[C@@H](n4ccc5c(N)ncnc54)[C@H](O)[C@@H]3O)ccc2cc1Br [Compound 80] |  | 0.251 nM | 
Nc1nc2cc(CC[C@H]3O[C@@H](n4ccc5c(N)ncnc54)[C@H](O)[C@@H]3O)ccc2cc1F [Compound 231] | 0.631 nM |  | 
Nc1nc2cc(CC[C@H]3O[C@@H](n4ccc5c(N)ncnc54)[C@H](O)[C@@H]3O)ccc2cc1Br [Compound 235] | 0.2 nM |  | 
Nc1nc2cc(OC[C@H]3C[C@@H](n4ccc5c(N)ncnc54)[C@H](O)[C@@H]3O)ccc2cc1Br [Compound 236] | < 0.2 nM |  | 
CNc1ncnc2c1ccn2[C@@H]1C[C@H](COc2ccc3cc(Cl)c(N)nc3c2)[C@@H](O)[C@H]1O [Compound 227] | 1.26 nM |  | 
